ChEMBL document CHEMBL1144712, “Structure-guided design of C2-symmetric HIV-1 protease inhibitors based on a pyrrolidine scaffold” (J Med Chem, 2008)

target: Protease (Human immunodeficiency virus 1, UniProt Q9YQ12); assay: Inhibition of HIV1 recombinant protease expressed in Escherichia coli
Sequence (Q9YQ12 whole entry): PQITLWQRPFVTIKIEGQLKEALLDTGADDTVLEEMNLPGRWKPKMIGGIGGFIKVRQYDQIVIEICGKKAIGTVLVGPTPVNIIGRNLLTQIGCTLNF

| SMILES | Ki [µM] |
| --- | --- |
| O=[N+]([O-])c1ccc(S(=O)(=O)N(Cc2ccccc2)[C@H]2CNC[C@@H]2N(Cc2ccccc2)S(=O)(=O)c2ccc([N+](=O)[O-])cc2)cc1 | 1.72 |
| C=CCN([C@H]1CNC[C@@H]1N(CC=C)S(=O)(=O)c1ccccc1)S(=O)(=O)c1ccccc1 | 12.3 |
| C=C(C)CN([C@H]1CNC[C@@H]1N(CC(=C)C)S(=O)(=O)c1ccccc1)S(=O)(=O)c1ccccc1 | 74.7 |

The next compounds have a lower Ki than those just listed; values first:

| Ki [µM] | SMILES |
| --- | --- |
| 0.67 | Cc1ccccc1S(=O)(=O)N(Cc1ccccc1)[C@H]1CNC[C@@H]1N(Cc1ccccc1)S(=O)(=O)c1ccccc1C |
| 0.46 | O=S(=O)(c1ccccc1)N(Cc1ccc(Br)cc1)[C@H]1CNC[C@@H]1N(Cc1ccc(Br)cc1)S(=O)(=O)c1ccccc1 |
| 1.57 | CC(C)=CCN([C@H]1CNC[C@@H]1N(CC=C(C)C)S(=O)(=O)c1ccccc1)S(=O)(=O)c1ccccc1 |
| 0.8 | O=S(=O)(c1ccccc1)N(Cc1ccc(C(F)(F)F)cc1)[C@H]1CNC[C@@H]1N(Cc1ccc(C(F)(F)F)cc1)S(=O)(=O)c1ccccc1 |
